The source made the active and inactive calls. For most assays here, no stated cut-off is given here; in the data, actives have a measured EC50 and inactives only a lower limit.
How the values were obtained:
[1] = biological target: T1, RNA-binding protein pos-1 (Caenorhabditis elegans, UniProt G5EF15); test: inhibitors of POS-1/mex-3 RNA binding, dose response, biochemical, fluorescence polarization (AID 1964);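 further: purified POS-1 fused to maltose binding protein made in E. coli; potency of compounds blocking POS-1 binding to fluorescent RNA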
T1 sequence (G5EF15 whole entry): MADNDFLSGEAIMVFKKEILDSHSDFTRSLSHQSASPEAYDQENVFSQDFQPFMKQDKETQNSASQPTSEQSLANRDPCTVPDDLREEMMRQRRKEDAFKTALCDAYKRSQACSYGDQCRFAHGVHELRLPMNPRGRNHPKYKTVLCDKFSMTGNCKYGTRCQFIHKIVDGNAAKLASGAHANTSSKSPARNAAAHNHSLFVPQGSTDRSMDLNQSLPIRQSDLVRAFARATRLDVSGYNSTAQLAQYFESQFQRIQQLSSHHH

[2] = biological target: T2, Zinc finger protein mex-5 (Caenorhabditis elegans, UniProt Q9XUB2); test: MEX-5/TCR-2 RNA interaction inhibitors, dose response, biochemical, C. elegans, fluorescence polarization (AID 1960)
T2 sequence (Q9XUB2 whole entry): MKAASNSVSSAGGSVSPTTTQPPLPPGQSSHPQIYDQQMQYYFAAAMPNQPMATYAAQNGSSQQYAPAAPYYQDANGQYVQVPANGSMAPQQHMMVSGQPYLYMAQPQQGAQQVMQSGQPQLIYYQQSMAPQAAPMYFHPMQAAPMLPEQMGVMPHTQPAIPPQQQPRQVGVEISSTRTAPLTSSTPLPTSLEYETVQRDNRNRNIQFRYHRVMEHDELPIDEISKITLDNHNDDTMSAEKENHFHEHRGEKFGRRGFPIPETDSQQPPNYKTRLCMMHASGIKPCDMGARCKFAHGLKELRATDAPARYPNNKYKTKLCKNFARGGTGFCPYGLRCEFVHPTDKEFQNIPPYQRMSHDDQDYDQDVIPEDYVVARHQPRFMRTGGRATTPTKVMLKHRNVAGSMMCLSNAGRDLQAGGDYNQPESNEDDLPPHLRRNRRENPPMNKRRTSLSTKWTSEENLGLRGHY

[3] = inhibitors of firefly luciferase expression or activity, dose response, H4 neuroglioma cells, luminescence (AID 1990); format: functional, cell-based
[4] = Luminescence Cell-Based Dose Response HTS to Identify Inhibitors of 5'UTR Stem-Loop Driven Prion Protein mRNA Translation in H4 Neuroglioblastoma Cells. [Related pubchem assays: 1827 (Project Summary), 1813 (Primary HTS)]; format: functional
[5] = inhibitors of SNCA 5'UTR-driven reporter translation, confirmation, H4 neuroglioma cells, luminescence (AID 1988); format: functional, cell-based
[6] = biological target: T3, Heat shock factor protein 1 (Mus musculus, UniProt P38532); test: HSF1 potentiators in luciferase reporter cells, confirmation, cell-based, NIH3T3, luminescence, dose retest (AID 435004); format: functional;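 further: stress induced by proteasome inhibitor MG132 added 30 min after compound; luciferase reporter driven by HSF1 response element in NIH3T3 cells; actives raise luminescence as potentiators of the MG132 stress response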
T3 sequence (P38532 whole entry): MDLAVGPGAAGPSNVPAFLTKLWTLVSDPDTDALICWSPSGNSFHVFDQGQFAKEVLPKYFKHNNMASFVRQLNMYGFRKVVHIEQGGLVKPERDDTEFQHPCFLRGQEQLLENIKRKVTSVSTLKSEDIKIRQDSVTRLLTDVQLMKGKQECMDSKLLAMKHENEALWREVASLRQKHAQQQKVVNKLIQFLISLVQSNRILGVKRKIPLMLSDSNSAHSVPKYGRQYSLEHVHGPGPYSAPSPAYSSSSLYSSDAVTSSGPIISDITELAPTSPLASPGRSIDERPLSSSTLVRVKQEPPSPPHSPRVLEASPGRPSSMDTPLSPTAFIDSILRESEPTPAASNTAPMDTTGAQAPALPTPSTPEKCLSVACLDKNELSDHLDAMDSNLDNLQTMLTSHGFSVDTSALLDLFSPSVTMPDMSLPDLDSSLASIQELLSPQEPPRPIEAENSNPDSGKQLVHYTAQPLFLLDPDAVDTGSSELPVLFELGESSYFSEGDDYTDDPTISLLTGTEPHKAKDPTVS

[7] = system: Streptococcus sp. 'group A'; test: growth inhibition of control SK(-) GAS strain, dose response, counter-screen for streptokinase expression inhibitor project, luminescence, kanamycin, BacTiterGlo, confirmation (AID 1900); format: functional, organism-based
[8] = system: Streptococcus; test: Group A Streptococcus viability loss, dose response, counter-screen for streptokinase expression inhibitor project, luminescence, BacTiterGlo (AID 1915); format: functional, organism-based;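 further: potency for reduction of bacterial viability or growth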
[9] = Luminescence Cell-Based Dose Retest to Confirm Inhibitors of Cancer Stem Cells. [Related pubchem assays (depositor defined):AID2717, AID2721]; format: functional, Homo sapiens; details: Homo sapiens
[10] = NIH-3T3 fibroblast cytotoxicity, dose response, cytotoxicity control, cell-based, fluorescence, Alamar Blue, secondary assay (AID 2327); format: functional;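 further: NIH-3T3 mouse fibroblasts cultured with fluconazole at 8 µg/mL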
[11] = C. albicans growth with fluconazole, confirmation, fluorescence, retest (AID 2467); format: functional, cell-based
[12] = inhibitors of intracellular T. cruzi replication, confirmation, NIH3T3 host cells, beta-gal luminescence (AID 2044); format: functional, cell-based;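 further: intracellular parasites grown in NIH/3T3 mouse fibroblasts as host cells; luminescent beta-galactosidase reporter signal from transgenic T. cruzi replicating inside host cells; inhibitors lower the luminescence signal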
[13] = cytotoxicity toward NIH3T3 fibroblasts, dose response, counter-screen, cell-based, ATP luminescence, mouse fibroblasts (AID 2010); format: functional;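 further: cells exposed to compound for about 90 hours before reading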
[14] = biological target: T4, Streptokinase A (Streptococcus pyogenes serotype M1, UniProt P10520); test: S. pyogenes streptokinase expression inhibitors, potency, dose response, plasminogen activation absorbance, OD405 (AID 1914); format: functional, Streptococcus pyogenes M1 GAS;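 further: secreted streptokinase activity via plasminogen activation per viability signal from cell pellet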
T4 sequence (P10520 whole entry): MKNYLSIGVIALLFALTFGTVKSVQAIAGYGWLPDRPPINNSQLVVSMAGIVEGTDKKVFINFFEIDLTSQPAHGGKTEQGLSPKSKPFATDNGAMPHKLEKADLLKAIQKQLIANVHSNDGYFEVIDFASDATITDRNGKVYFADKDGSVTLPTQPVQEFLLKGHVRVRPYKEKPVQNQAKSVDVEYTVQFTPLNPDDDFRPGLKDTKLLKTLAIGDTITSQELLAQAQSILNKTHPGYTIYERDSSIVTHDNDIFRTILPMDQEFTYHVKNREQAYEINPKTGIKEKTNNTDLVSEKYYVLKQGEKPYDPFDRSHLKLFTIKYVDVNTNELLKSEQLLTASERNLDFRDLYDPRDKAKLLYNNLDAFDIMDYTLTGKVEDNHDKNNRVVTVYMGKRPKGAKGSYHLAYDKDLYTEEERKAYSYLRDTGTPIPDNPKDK
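Wherever AC50 is given: cells exposed to compound for roughly 70 hours or longer before luminescence read.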

SMILES	EC50 [1]	EC50 [2]	EC50 [3]	EC50 [4]	EC50 [5]	further results
N#Cc1c(NC(=O)/C=C/C(=O)O)sc2c1CCN(Cc1ccccc1)C2	31 µM (active)	25.5 µM (active)	–	–	–	–
O=[N+]([O-])c1ccc(OCc2cn([C@@H](CO)c3ccccc3)nn2)c(Br)c1	–	–	> 120 µM (not active)	> 120 µM (not active)	> 120 µM (not active)	–
CCN(C(=O)c1cc(Cl)ccc1OC)C1CCCCC1	> 300 µM (not active)	> 300 µM (not active)	–	–	–	–
COc1ccc(N/C=C2/C(=O)NC(=S)N(Cc3ccccc3)C2=O)c(OC)c1	> 300 µM (inconclusive)	> 300 µM (inconclusive)	–	–	–	EC50 [6]: 2.74 µM (active)
CCOC(=O)C1Nc2ccc(C)cc2C2C=CCC12 (stereo not drawn)	> 300 µM (not active)	> 300 µM (not active)	–	–	–	–
Cc1ccc(N2CC(C(=O)Nc3nnc(SCC(=O)Nc4cc(C)on4)s3)CC2=O)cc1 (stereo not drawn)	–	–	> 120 µM (not active)	> 120 µM (not active)	> 120 µM (not active)	–
O=S(=O)(Nc1ccc(O)c2ccccc12)c1ccc(Br)cc1	36 µM (active)	22.9 µM (active)	–	–	–	–
CC1CCc2nc(NCCO)nc(C(F)(F)F)c2C1 (stereo not drawn)	–	–	12.5 µM (active)	26.1 µM (active)	> 120 µM (not active)	–
O=C(O)c1ccc2c(c1)C1C=CCC1C(c1ccncc1)N2 (stereo not drawn)	58.5 µM (active)	24.3 µM (inconclusive)	–	–	–	–
COc1cc(C2C(C#N)=C(N)OC3=C2C(=O)CCC3)cc2c1OCO2 (stereo not drawn)	> 300 µM (not active)	> 300 µM (not active)	–	–	–	–
O=c1cc(N2CCCCC2)c(-c2ccccc2)nn1Cc1c(Cl)cccc1Cl	–	–	14.8 µM (active)	> 120 µM (not active)	> 120 µM (not active)	EC50 [7]: 5.65 µM (active); EC50 [8]: 5.18 µM (active); AC50 [9]: 4.43 µM (active)
C=CCn1c(Cc2nc3ccccc3[nH]2)n[nH]c1=S	80.2 µM (active)	1.1 µM (active)	–	–	–	–
CCN(CC)c1ccc(N/C=C2/C(=O)NC(=O)N(Cc3ccccc3)C2=O)cc1	> 300 µM (not active)	–	–	–	–	–
NC(=O)c1sc2nc3c(c(-c4ccc(Cl)cc4)c2c1N)CCCC3	–	–	12.5 µM (active)	> 120 µM (not active)	12.3 µM (active)	–
CC(=O)C(=NNc1nc2c([nH]1)c(=O)n(C)c(=O)n2C)C(C)=O	73.9 µM (active)	12.7 µM (active)	–	–	–	–
Clc1cccc(CN2CCN(Cc3nc(CCc4ccccc4)no3)CC2)c1	–	–	> 120 µM (not active)	32.3 µM (active)	> 120 µM (not active)	EC50 [6]: > 260 µM (inactive)
CC(C)CNC(=O)C1Nc2ccc(C(F)(F)F)cc2C2C=CCC12 (stereo not drawn)	> 300 µM (not active)	> 300 µM (not active)	–	–	–	–
COC(=O)c1cc(C(=O)OC)cc(-n2c(C)cc(C(=O)COC(=O)CNS(=O)(=O)c3ccc(C)cc3)c2C)c1	> 300 µM (not active)	> 300 µM (not active)	–	–	–	–

SMILES	EC50 [1]	EC50 [2]	EC50 [3]	EC50 [4]	EC50 [5]	further results
Cc1cn(-c2cc(C(=O)Nc3ccc(C)c(NC(=O)C(=O)c4c[nH]c5ccccc45)c3)cc(C(F)(F)F)c2)cn1	–	–	–	23 µM (active)	–	EC50 [7]: 2.38 µM (active); EC50 [8]: 3.39 µM (active); AC50 [9]: 2.18 µM (active)
COC(=O)C1CCN(C(=O)COC(=O)Cc2c[nH]c3ccccc23)CC1	–	–	> 120 µM (not active)	> 120 µM (not active)	> 120 µM (not active)	–
O=c1c([N+](=O)[O-])c[nH]c2nc(-c3ccncc3)nn12	–	–	15.8 µM (active)	14.2 µM (active)	> 120 µM (not active)	–
O=S(=O)(NCC(c1ccco1)N1CCN(c2ccc(F)cc2)CC1)c1ccc2c(c1)OCCO2 (stereo not drawn)	–	–	–	–	–	EC50 [10]: > 150 µM (inactive); EC50 [11]: > 38 µM (not active)
O=C(CC12CC3CC(CC(C3)C1)C2)NC(=S)NCc1ccccc1	–	–	13.1 µM (active)	18.4 µM (active)	16.8 µM (active)	–
Cc1cc(/C=C2\C(=O)NC(=O)N(c3cccc(F)c3)C2=O)c(C)n1-c1ccc(C(=O)O)c(Cl)c1	> 300 µM (not active)	> 300 µM (not active)	–	–	–	–
Cc1cccc(NC2=NC(=O)CS2)c1	> 300 µM (not active)	> 300 µM (not active)	–	–	–	–
O=C(Cn1cnc2c(cnn2-c2ccc(Cl)cc2)c1=O)N1CCN(c2ccccc2)CC1	–	–	15.8 µM (active)	12 µM (active)	18.4 µM (active)	–
Cc1n[nH]c(C)c1CCNCc1ccc(OCC(O)CN2CCCCC2)cc1 (stereo not drawn)	–	–	–	–	–	EC50 [10]: > 150 µM (inconclusive); EC50 [11]: > 38 µM (not active)
Cc1cccc(C)c1NC(=O)COC(=O)c1cccc2c1C(=O)c1ccccc1C2=O	–	–	13.9 µM (active)	13.3 µM (active)	> 120 µM (not active)	EC50 [6]: 30.8 µM (active)
Cc1cc(C)c2c(N)c(C(=O)c3ccc(Cl)cc3Cl)sc2n1	–	–	12.2 µM (active)	19.4 µM (active)	13.8 µM (active)	–
O=C(NCCc1c[nH]c2ccccc12)C1CCC(Cn2c(=S)[nH]c3ccccc3c2=O)CC1 (stereo not drawn)	–	–	16.9 µM (active)	> 120 µM (not active)	32.1 µM (active)	EC50 [12]: 1.07 µM (active); EC50 [13]: > 60 µM (not active); AC50 [9]: 0.582 µM (active)
Cc1cccc(/N=N/c2c(C)[nH]n(C(N)=S)c2=O)c1C	–	–	–	–	–	EC50 [10]: > 150 µM (inactive); EC50 [11]: 3.07 µM (active)
COc1cccc(N/N=C2/C(=O)Nn3c2nc(C)cc3=O)c1	> 300 µM (inconclusive)	< 0.06 µM (inconclusive)	–	–	–	–
Cc1ccc(S(=O)(=O)N(C)CC(=O)N/N=C/c2ccc(C)o2)cc1	–	–	> 120 µM (not active)	> 120 µM (not active)	> 120 µM (not active)	–
O=C1CCCCC/C1=N/Nc1ccc(OCc2ccccc2)cc1	–	–	–	–	–	EC50 [10]: > 150 µM (inactive); EC50 [11]: > 38 µM (not active)
N=C(N)c1ccc(OCCCCCOc2ccc(C(=N)N)cc2)cc1	–	–	11.5 µM (active)	10.9 µM (active)	9.9 µM (active)	EC50 [7]: < 0.06 µM (active); EC50 [14]: 27.9 µM (active); EC50 [8]: < 0.06 µM (active)

Reference: ChEMBL document CHEMBL1201862, “PubChem BioAssay data set” (2004)
